Assay results reported in the NIST ThermoML archive (doi:10.1021/acs.jced.5b00944).

Assay: xn = mol fraction of the nth substance listed
Conditions: for viscosity / speed of sound / mass density: 100 kPa, Liquid; for viscosity: Capillary tube (Ostwald / Ubbelohde) method; for speed of sound: Sing-around technique in a fixed-path interferometer; for mass density: Vibrating tube method; for surface tension liquid-gas: Capillary rise

CCCC[N+]1(C)CCCC1.N#CN=C=[N-] [1-butyl-1-methylpyrrolidinium dicyanamide] + O
Conditions	mass density [kg/m3]	speed of sound [m/s]	surface tension liquid-gas [mN/m]	viscosity [mPa·s]
287.92 K, x2 = 0.0329	–	–	–	46.3
287.92 K, x2 = 0.0994	–	–	–	44.7
287.94 K, x2 = 0.2615	–	–	–	37.1
287.94 K, x2 = 0.4463	–	–	–	28.9
287.95 K, x2 = 0.6509	–	–	–	19.6
287.95 K, x2 = 0.751	–	–	–	14.4
287.97 K, x2 = 0.9	–	–	–	5.51
288.15 K, x2 = 0	1019.11	1834.4	–	–
288.15 K, x2 = 0.0329	1019.02	1834.2	–	–
288.15 K, x2 = 0.0993	1018.74	1833.5	–	–
288.15 K, x2 = 0.2615	1018.26	1832.2	–	–
288.15 K, x2 = 0.4463	1017.61	1832.1	–	–
288.15 K, x2 = 0.6509	1016.78	1831.3	–	–
288.15 K, x2 = 0.751	1016.44	1825	–	–
288.15 K, x2 = 0.9	1012.13	1752.9	–	–
288.3 K, x2 = 0.0329	–	–	51.9	–
288.8 K, x2 = 0.0994	–	–	52.4	–
288.8 K, x2 = 0.751	–	–	54.3	–
288.8 K, x2 = 0.9	–	–	54.3	–
288.9 K, x2 = 0.6509	–	–	50.6	–
289 K, x2 = 0.4463	–	–	51.8	–
289.1 K, x2 = 0.2615	–	–	52	–
297.5 K, x2 = 0.0329	–	–	51.4	–
297.6 K, x2 = 0.9	–	–	53.7	–
297.7 K, x2 = 0.4463	–	–	51.5	–
297.8 K, x2 = 0.0994	–	–	52	–
297.8 K, x2 = 0.751	–	–	53.3	–
297.9 K, x2 = 0.2615	–	–	51.6	–
297.9 K, x2 = 0.6509	–	–	50.1	–
297.93 K, x2 = 0.0329	–	–	–	31.9
297.93 K, x2 = 0.4463	–	–	–	20
297.94 K, x2 = 0.2615	–	–	–	26.1
297.95 K, x2 = 0.0994	–	–	–	31.1
297.95 K, x2 = 0.751	–	–	–	10
297.96 K, x2 = 0.6509	–	–	–	13.4
297.96 K, x2 = 0.9	–	–	–	3.93
298.15 K, x2 = 0	1013.48	1809.6	–	–
298.15 K, x2 = 0.0329	1013.44	1809.6	–	–
298.15 K, x2 = 0.0993	1013.07	1808.5	–	–
298.15 K, x2 = 0.2615	1012.53	1807.6	–	–
298.15 K, x2 = 0.4463	1011.78	1808.1	–	–
298.15 K, x2 = 0.6509	1010.69	1808.3	–	–
298.15 K, x2 = 0.751	1010.21	1803.2	–	–
298.15 K, x2 = 0.9	1006.14	1740.1	–	–
305.2 K, x2 = 0.2615	–	–	51	–
305.5 K, x2 = 0.0994	–	–	51.7	–
305.5 K, x2 = 0.751	–	–	52.6	–
305.6 K, x2 = 0.4463	–	–	51	–
305.6 K, x2 = 0.9	–	–	52.9	–
306 K, x2 = 0.0329	–	–	50.8	–
306 K, x2 = 0.6509	–	–	49.8	–
307.99 K, x2 = 0.4463	–	–	–	14.6
308 K, x2 = 0.0329	–	–	–	23.1
308.01 K, x2 = 0.0994	–	–	–	22.5
308.02 K, x2 = 0.751	–	–	–	7.24
308.02 K, x2 = 0.9	–	–	–	2.98
308.03 K, x2 = 0.2615	–	–	–	19
308.03 K, x2 = 0.6509	–	–	–	9.74
308.15 K, x2 = 0	1007.82	1785.2	–	–
308.15 K, x2 = 0.0329	1007.7	1785.2	–	–
308.15 K, x2 = 0.0993	1007.45	1784.4	–	–
308.15 K, x2 = 0.2615	1006.85	1783.8	–	–
308.15 K, x2 = 0.4463	1005.97	1784.8	–	–
308.15 K, x2 = 0.6509	1004.63	1785.9	–	–
308.15 K, x2 = 0.751	1003.96	1781.8	–	–
308.15 K, x2 = 0.9	999.99	1726.6	–	–
312.9 K, x2 = 0.2615	–	–	50.6	–
313.2 K, x2 = 0.751	–	–	52	–
313.5 K, x2 = 0.4463	–	–	50.4	–
313.8 K, x2 = 0.0994	–	–	51.1	–
313.8 K, x2 = 0.6509	–	–	49.3	–
313.9 K, x2 = 0.0329	–	–	50.3	–
316.2 K, x2 = 0.9	–	–	52.2	–
318.02 K, x2 = 0.0329	–	–	–	17.4
318.03 K, x2 = 0.4463	–	–	–	11
318.04 K, x2 = 0.751	–	–	–	5.47
318.05 K, x2 = 0.2615	–	–	–	14.4
318.05 K, x2 = 0.9	–	–	–	2.33
318.06 K, x2 = 0.0994	–	–	–	16.9
318.06 K, x2 = 0.6509	–	–	–	7.37
318.15 K, x2 = 0	1002.33	1761	–	–
318.15 K, x2 = 0.0329	1002.21	1760.7	–	–
318.15 K, x2 = 0.0993	1001.88	1760	–	–
318.15 K, x2 = 0.2615	1001.22	1759.7	–	–
318.15 K, x2 = 0.4463	1000.21	1761.1	–	–
318.15 K, x2 = 0.6509	998.57	1762.5	–	–
318.15 K, x2 = 0.751	997.71	1759.7	–	–
318.15 K, x2 = 0.9	993.7	1711.2	–	–
323.9 K, x2 = 0.0994	–	–	50.3	–
324.1 K, x2 = 0.2615	–	–	49.6	–
324.2 K, x2 = 0.751	–	–	51.1	–
324.4 K, x2 = 0.9	–	–	51.7	–
324.5 K, x2 = 0.4463	–	–	49.6	–
324.6 K, x2 = 0.6509	–	–	48.9	–
324.9 K, x2 = 0.0329	–	–	49.5	–
333.04 K, x2 = 0.0329	–	–	–	12.1
333.07 K, x2 = 0.4463	–	–	–	7.72
333.07 K, x2 = 0.751	–	–	–	3.81
333.07 K, x2 = 0.9	–	–	–	1.68
333.08 K, x2 = 0.2615	–	–	–	10.1
333.09 K, x2 = 0.6509	–	–	–	5.14
333.1 K, x2 = 0.0994	–	–	–	11.7
333.15 K, x2 = 0	994.14	1724.7	–	–
333.15 K, x2 = 0.0329	993.99	1724.4	–	–
333.15 K, x2 = 0.0993	993.64	1723.9	–	–
333.15 K, x2 = 0.2615	992.88	1724	–	–
333.15 K, x2 = 0.4463	991.65	1725.6	–	–
333.15 K, x2 = 0.6509	989.51	1727	–	–
333.15 K, x2 = 0.751	988.31	1724.7	–	–
333.15 K, x2 = 0.9	983.98	1684.9	–	–
